# Values quoted from earlier work as cited in patent publication US7402578B2, “Methods for inhibiting cognitive deterioration in adults with down's syndrome” (Corcept Therapeutics, Inc., priority 2001, dated 2008).
# What was measured:
# [1] = in one study (Kawai)
# [2] = test system: cognitive function in DS children; settings: Lobaugh et al. 2001
Compound,fraction of the daily dose excreted in the urine [1],enhancement of cognitive function [2]
"CC#C[C@]1(O)CC[C@H]2[C@@H]3CCC4=CC(=O)CCC4=C3[C@@H](c3ccc(N(C)C)cc3)C[C@@]21C [Mifepristone, 17-beta-hydroxy-11-beta-(4-dimethylaminophenyl)-17-alpha-(1-propynyl)-estra-4,9-dien-3-one]",less than 0.5%,
NC(=O)CN1CCCC1=O [Piracetam],,failed to enhance cognitive function
